Reference: patent US20150079000A1, “Labelled Quinoxaline Derivatives as Multimodal Radiopharmaceuticals and Their Precursors” (INSTITUT NATIONAL DE LA SANTET DE LA RECHERCHE MEDICALE, priority 2012, published 2015)

What was measured:
SKMEL-3 tumours = assay: PET imaging in SKMEL-3 tumour bearing mice; type: in vivo, Swiss nudes mice; conditions: 1 h p.i.
Description: (§1) Protocols were performed under the authorization of the French Direction des Services Veterinaires (authorization no. CE 86-12). Female Swiss nudes mice (6 weeks old) were originating from Charles River laboratories and maintained at 21° C. with a 12 h/12 h light/dark cycle, fed with a breeding diet (diet A04 from Safe, Villemoisson, France) and received water ad libitum. For transplantation cell suspension were grown in a monolayer culture to confluence, after which cells were trypsinized, washed with phosphate buffer saline (PBS) and they were resuspended in PBS. Mice were anesthetized by isoflurane (4% for induction and 2±0.5% for maintaining in oxygen flux) inhalation. The primary tumour model was induced by subcutaneous injection of 3×10^6 melanoma SKMEL-3 (pigmented cell line) or A375 (non-pigmented cell ligne) cells in 0.1 mL on the right shoulder of mice.
(§2) Whole-body PET scans were acquired 1 h after bolus injection of 10 MBq of [^18F](1) in a volume of 0.15 ml via the tail vein. […]
(§3) Regional tracer uptake was quantified by standard region-of-interest (ROI) analysis with eXplore Vista software package. […]

[1] = radiochemical stability of the radiotracer after preparation; type: physicochemical
B16BL6 tumour = assay: PET imaging in B16BL6 tumour bearing mice; type: in vivo, C57BL/6J mice; conditions: 1 h p.i., day-15
Description: as §1, with “All our studies were performed in accordance with French and European Economic Community (86-609, EEC) guidelines for care of laboratory animals. Protocols” for “Protocols”, “Male C57BL/6J” for “Female Swiss nudes”, “mice” for “mice (6 weeks old)”, “transplantation B16BL6” for “transplantation”, “3×10^5” for “3×10^6”, “B16B16” for “SKMEL-3 (pigmented cell line) or A375 (non-pigmented cell ligne)”
Whole-body PET scans were acquired 1 h after bolus injection of […] of the appropriate [^18F]-compound in a volume of 0.15 ml via the tail vein. Mice were anesthetized by intraperitoneal (i.p.) administration (200 μL/mouse) of a ketamine-xylazine mixture in saline: ketamine (100 mg/kg, Imalgene™, Rhône Mérieux, Lyon, France) and xylazine (10 mg/kg, Rompun™, Bayer, France) before radiotracer injection and imaged by using a small-animal PET device, eXplore Vista microPET instrument (GE Healthcare). PET images were acquired by using static mode during 20 min. The acquired data were reconstructed using the 2-Dimensional ordered-subsets expectation maximization (OSEM) algorithm and corrected from decay, scatter and randoms. No corrections were applied for partial volume or attenuation.
Regional tracer uptake was quantified by standard region-of-interest (ROI) analysis with eXplore Vista software package. A manual 2D-ROI was drawn around the tumour in each slice where tumour was visible, and on several subsequent coronal planes containing muscle tissue at the forelimb. Results are expressed by percentage of injected dose per gram of tissue (% ID/g).
PET imaging was performed 1 h post injection of tracers in B16BL6 tumour bearing mice at day-15 after tumours cell inoculation.

[2] = octanol/water (PBS buffer) partition coefficient (log D); type: physicochemical
A375 tumours = assay: PET imaging in A375 tumour bearing mice; type: in vivo, Swiss nudes mice; conditions: 1 h p.i.
Description: as §1, §2, §3

[3] = [18F](1) stability study on ex vivo extracts; type: in vivo, mice
Description: Six primary melanoma bearing mice were intravenously injected with 18 MBq of [^18F](1) and sacrificed 30 min, 1 h and 2 h after tracer injection. To determine the metabolic stability of [^18F](1), blood, tumour, eyes, liver and urine samples were collected. Blood was immediately centrifuged for 5 min at 3,000 rpm and plasma directly investigated by analytical HPLC. Other organs were pooled and homogenized using GentleMACS™ dissociator (Miltenyi Biotec, Bergisch Gladbach, Germany), suspended in 5 mL of methanol/NH4OH 99.8:0.2 and centrifuged for 5 min at 3,000 rpm. The extraction efficiency was determined by measuring the radioactivity of supernatants and precipitates. Supernatants were passed through a 0.22 μm Millipore filter and then concentrated to a volume between 200 and 500 μL before injection (duplicate) onto the analytical HPLC (Waters Symmetry® C18; Gradient elution: 60% to 90% MeOH (0.4% NH4OH) in water (0.4% NH4OH) (10 min), then 60% for 7 min).

In the case of `CCN(CCNC(=O)c1cnc2cc(I)ccc2n1)CCOCCOCCOCC[18F]` [[^18F](1)], the muscles activity (SKMEL-3 tumours; SKMEL-3 tumour bearing mice) is reported as 1.34±0.42 % ID/g, the tumour uptake (SKMEL-3 tumours; day-27, pigmented SKMEL-3 tumours) is reported as 4.65±1.07 % ID/g and the “radiochemically stable at room temperature after preparation” value [1] is reported as “at least 24 h”. For the same compound, the eyes uptake (B16BL6 tumour) was 10.50±2.95 % ID/g, the intestine uptake (B16BL6 tumour) was 4.07±1.39 % ID/g and the muscles activity (B16BL6 tumour) was 1.37±0.37 % ID/g. For the same compound, the pigmented spleen uptake (B16BL6 tumour) was 7.38±0.73 % ID/g, the tumour uptake (B16BL6 tumour) was 14.33±2.11 % ID/g and the tumour/muscle ratio (B16BL6 tumour) was 11.04±2.87. For the same compound, the “octanol/water (PBS buffer) partition coefficient (log D)” value [2] was 1.52±0.03, the muscles activity (A375 tumours; A375 tumour bearing mice) was 1.14±0.28 % ID/g and the tumour uptake (A375 tumours; day-23, unpigmented A375 tumours) was 1.87±0.34 % ID/g. For the same compound, the “% unchanged [18F](1)” value ([3]; Black, Blood, 30 min) was 15.2%, the “% unchanged [18F](1)” value ([3]; Black, Eyes, 1 h) was 100% and the “% unchanged [18F](1)” value ([3]; Black, Eyes, 2 h) was over 99%. For the same compound, the “% unchanged [18F](1)” value ([3]; Black, Liver, 1 h) was under 10%, the “% unchanged [18F](1)” value ([3]; Black, Liver, 2 h) was under 20% and the “% unchanged [18F](1)” value ([3]; Black, Tumour, 1 h) was over 99%. The “% unchanged [18F](1)” value ([3]; Black, Tumour, 2 h) was 100%, the “% unchanged [18F](1)” value ([3]; Black, Urine, 1 h) was 0.1% and the “% unchanged [18F](1)” value ([3]; Black, Urine, 2 h) was 0.0%. For the same compound, the “% unchanged [18F](1)” value ([3]; Nude, Blood, 30 min) was 3.0%, the “% unchanged [18F](1)” value ([3]; Nude, Liver, 2 h) was under 10% and the “% unchanged [18F](1)” value ([3]; Nude, Tumour, 1 h) was over 99%. For the same compound, the “% unchanged [18F](1)” value ([3]; Nude, Tumour, 2 h) was over 99%, the “% unchanged [18F](1)” value ([3]; Nude, Urine, 1 h) was 2.7% and the “% unchanged [18F](1)” value ([3]; Nude, Urine, 2 h) was 1.4%.
